Laboratory results published in the NIST ThermoML archive (doi:10.1016/j.jct.2012.10.012).
Several values for one entry are separate records, joined by “and”; a condition that tells them apart may be missing. Equal values may be shown once.

Conditions: Crystal, Calculated from knudsen effusion weight loss

O=C1CNC(=O)CN1 [2,5-diketopiperazine]
Conditions | vapor or sublimation pressure
419.16 K | 0.000101 kPa and 9.91e-05 kPa and 9.65e-05 kPa
421.11 K | 0.000118 kPa and 0.000119 kPa and 0.000114 kPa
423.15 K | 0.00014 kPa and 0.000137 kPa and 0.000141 kPa
425.16 K | 0.000168 kPa and 0.000156 kPa and 0.000162 kPa
427.1 K | 0.000196 kPa and 0.000188 kPa and 0.000195 kPa
429.14 K | 0.000232 kPa and 0.000226 kPa and 0.000236 kPa
431.17 K | 0.00029 kPa and 0.000257 kPa and 0.000273 kPa
433.11 K | 0.00033 kPa and 0.00032 kPa and 0.000347 kPa
435.15 K | 0.000382 kPa and 0.00038 kPa and 0.00039 kPa
437.19 K | 0.00047 kPa and 0.000459 kPa
439.11 K | 0.000548 kPa and 0.000519 kPa and 0.00052 kPa
441.16 K | 0.000646 kPa and 0.000627 kPa and 0.000626 kPa

CC1NC(=O)C(C)NC1=O (centres undefined) [3,6-dimethyl-2,5-piperazinedione]
Conditions | vapor or sublimation pressure
388.13 K | 0.000116 kPa and 0.000126 kPa
390.16 K | 0.000142 kPa and 0.000149 kPa and 0.00014 kPa
392.15 K | 0.000171 kPa and 0.000179 kPa
394.13 K | 0.000212 kPa and 0.000216 kPa
396.14 K | 0.00026 kPa and 0.000247 kPa and 0.000267 kPa
398.15 K | 0.000309 kPa and 0.000298 kPa and 0.000325 kPa
400.13 K | 0.000387 kPa and 0.000371 kPa and 0.000388 kPa
402.13 K | 0.000454 kPa and 0.000436 kPa and 0.000463 kPa
404.15 K | 0.000543 kPa and 0.000563 kPa
406.14 K | 0.000696 kPa and 0.000677 kPa and 0.000693 kPa
408.14 K | 0.000821 kPa and 0.000818 kPa and 0.000785 kPa
410.15 K | 0.000977 kPa and 0.000955 kPa and 0.000927 kPa
